{"source": "the supplement of paper PMC10307832", "experiment_in_all_cases": "relative viability (nuclei count vs DMSO), 5 days (fraction); higher = more cells survive", "key": {"NCI-H1666": {"test_system": "NCI-H1666", "in_short": "(§1)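 Each reported value is a median over duplicate plates. It expresses relative viability: treated-well nuclei count divided by vehicle-well nuclei count. Lung cancer cell lines in 1536-well plates were dosed by pin tool a day after seeding, alone with one drug or with a fixed anchor-drug dose plus five library-drug doses (not always all listed) in √10 steps, and nuclei were counted after 5 days.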"}, "NCI-H441": {"test_system": "NCI-H441", "in_short": "as §1"}, "LK-2": {"test_system": "LK-2", "in_short": "as §1"}, "EKVX": {"test_system": "EKVX", "in_short": "as §1"}, "NCI-H1755": {"test_system": "NCI-H1755", "in_short": "as §1"}, "NCI-H23": {"test_system": "NCI-H23", "in_short": "as §1"}, "SK-MES-1": {"test_system": "SK-MES-1", "in_short": "as §1"}, "NCI-H596": {"test_system": "NCI-H596", "in_short": "as §1"}, "SW 900": {"test_system": "SW 900", "in_short": "as §1"}, "NCI-H1975": {"test_system": "NCI-H1975", "in_short": "as §1"}, "PC-3 [JPC-3]": {"test_system": "PC-3 [JPC-3]", "in_short": "as §1"}}}
{"smiles": "O=c1cc(-c2cccc3c2Sc2ccccc2S3)oc(N2CCOCC2)c1", "note": "+ CCNC(=O)c1noc(-c2cc(C(C)C)c(O)cc2O)c1-c1ccc(CN2CCOCC2)cc1 [Luminespib] (partner 0.01 µM)", "values": [{"measurement": "relative viability", "setting": "NCI-H1666; first compound 0.08 µM", "value": 1.01}, {"measurement": "relative viability", "setting": "NCI-H1666; first compound 0.253 µM", "value": 1.09}, {"measurement": "relative viability", "setting": "NCI-H1666; first compound 0.8 µM", "value": 1.01}, {"measurement": "relative viability", "setting": "NCI-H1666; first compound 2.53 µM", "value": 1.06}, {"measurement": "relative viability", "setting": "NCI-H1666; first compound 8 µM", "value": 1.17}, {"measurement": "relative viability", "setting": "NCI-H441; first compound 0.08 µM", "value": 0.331}, {"measurement": "relative viability", "setting": "NCI-H441; first compound 0.253 µM", "value": 0.314}, {"measurement": "relative viability", "setting": "NCI-H441; first compound 0.8 µM", "value": 0.35}, {"measurement": "relative viability", "setting": "NCI-H441; first compound 2.53 µM", "value": 0.407}, {"measurement": "relative viability", "setting": "NCI-H441; first compound 8 µM", "value": 0.281}, {"measurement": "relative viability", "setting": "LK-2; first compound 0.08 µM", "value": 0.184}, {"measurement": "relative viability", "setting": "LK-2; first compound 0.253 µM", "value": 0.184}, {"measurement": "relative viability", "setting": "LK-2; first compound 0.8 µM", "value": 0.151}, {"measurement": "relative viability", "setting": "LK-2; first compound 2.53 µM", "value": 0.22}, {"measurement": "relative viability", "setting": "LK-2; first compound 8 µM", "value": 0.176}, {"measurement": "relative viability", "setting": "EKVX; first compound 0.08 µM", "value": 0.829}, {"measurement": "relative viability", "setting": "EKVX; first compound 0.253 µM", "value": 0.924}, {"measurement": "relative viability", "setting": "EKVX; first compound 0.8 µM", "value": 0.846}, {"measurement": "relative viability", "setting": "EKVX; first compound 2.53 µM", "value": 0.883}, {"measurement": "relative viability", "setting": "EKVX; first compound 8 µM", "value": 0.853}, {"measurement": "relative viability", "setting": "NCI-H1755; first compound 0.08 µM", "value": 0.425}, {"measurement": "relative viability", "setting": "NCI-H1755; first compound 0.253 µM", "value": 0.614}, {"measurement": "relative viability", "setting": "NCI-H1755; first compound 0.8 µM", "value": 0.378}, {"measurement": "relative viability", "setting": "NCI-H1755; first compound 2.53 µM", "value": 0.641}, {"measurement": "relative viability", "setting": "NCI-H1755; first compound 8 µM", "value": 0.5}, {"measurement": "relative viability", "setting": "NCI-H23; first compound 0.08 µM", "value": 0.195}, {"measurement": "relative viability", "setting": "NCI-H23; first compound 0.253 µM", "value": 0.228}, {"measurement": "relative viability", "setting": "NCI-H23; first compound 0.8 µM", "value": 0.188}, {"measurement": "relative viability", "setting": "NCI-H23; first compound 2.53 µM", "value": 0.219}, {"measurement": "relative viability", "setting": "NCI-H23; first compound 8 µM", "value": 0.209}, {"measurement": "relative viability", "setting": "SK-MES-1; first compound 0.08 µM", "value": 0.775}, {"measurement": "relative viability", "setting": "SK-MES-1; first compound 0.253 µM", "value": 0.748}, {"measurement": "relative viability", "setting": "SK-MES-1; first compound 0.8 µM", "value": 0.734}, {"measurement": "relative viability", "setting": "SK-MES-1; first compound 2.53 µM", "value": 0.522}, {"measurement": "relative viability", "setting": "SK-MES-1; first compound 8 µM", "value": 0.505}, {"measurement": "relative viability", "setting": "NCI-H596; first compound 0.08 µM", "value": 1.06}, {"measurement": "relative viability", "setting": "NCI-H596; first compound 0.253 µM", "value": 0.957}, {"measurement": "relative viability", "setting": "NCI-H596; first compound 0.8 µM", "value": 0.763}, {"measurement": "relative viability", "setting": "NCI-H596; first compound 2.53 µM", "value": 0.891}, {"measurement": "relative viability", "setting": "NCI-H596; first compound 8 µM", "value": 0.852}, {"measurement": "relative viability", "setting": "SW 900; first compound 0.08 µM", "value": 0.198}, {"measurement": "relative viability", "setting": "SW 900; first compound 0.253 µM", "value": 0.187}, {"measurement": "relative viability", "setting": "SW 900; first compound 0.8 µM", "value": 0.166}, {"measurement": "relative viability", "setting": "SW 900; first compound 2.53 µM", "value": 0.149}, {"measurement": "relative viability", "setting": "SW 900; first compound 8 µM", "value": 0.15}, {"measurement": "relative viability", "setting": "NCI-H1975; first compound 0.08 µM", "value": 0.121}, {"measurement": "relative viability", "setting": "NCI-H1975; first compound 0.253 µM", "value": 0.167}, {"measurement": "relative viability", "setting": "NCI-H1975; first compound 0.8 µM", "value": 0.15}, {"measurement": "relative viability", "setting": "NCI-H1975; first compound 2.53 µM", "value": 0.231}, {"measurement": "relative viability", "setting": "NCI-H1975; first compound 8 µM", "value": 0.169}, {"measurement": "relative viability", "setting": "PC-3 [JPC-3]; first compound 0.08 µM", "value": 0.685}, {"measurement": "relative viability", "setting": "PC-3 [JPC-3]; first compound 0.253 µM", "value": 0.765}]}
